The values below come from PMC9026082, “Madecassic Acid—A New Scaffold for Highly Cytotoxic Agents” (International Journal of Molecular Sciences, 2022).

SMILES strings stand for the structures. Structures can show the parent of a compound that is named as a salt.

Data set [1] has as its system NIH 3T3 (non-malignant fibroblasts). Briefly: SRB cytotoxicity assay, NIH 3T3. It is filed as cell-based. The conditions noted are these: Mus musculus, NIH3T3, 72 h of treatment, cut-off 30 μM. An excerpt: (§1) To assess their cytotoxicity parent, triterpenoic acids 1–3, their acetates 4–6, the amides 7–18, as well as the respective rhodamine B conjugates 19–24 were subjected to SRB assays employing several human tumor cell lines (A375, HT29, MCF-7, A2780, and HeLa) as well as non-malignant fibroblasts (NIH 3T3).
(§2) A detailed description of materials and methods can be found in the Supplementary Materials File. For biological screening, the cell lines were obtained from ATCC: A375 (CRL-1619), HT29 (HTB-38), MCF7 (HTP-22), A2780 (HTP-77), HeLa (CCL-2), and NIH 3T3 (CRL-1573) ^13C NMR spectra (Supplementary Materials) were recorded as APT spectra showing CH and CH3 groups as positive signals and CH2 groups and quaternary carbons as negative signals. […]
(§3) 2. Cytotoxicity assay (SRB assay)
(§4) The cell lines were obtained from Department of oncology (Martin-Luther-University Halle Wittenberg). Cultures were maintained as monolayers in RPMI 1640 medium with L-glutamine (Capricorn Scientific GmbH, Ebsdorfergrund, Germany) supplemented with 10% heat inactivated fetal bovine serum (Sigma -Aldrich Chemie GmbH, Steinheim, Germany) and penicillin/streptomycin (1%, Capricorn Scientific GmbH, Ebsdorfergrund, Germany) at 37 °C in a humidified atmosphere with 5% CO 2.
(§5) The cytotoxicity of the compounds was eva luated using the sulforhodamine -B (Kiton-Red S, ABCR) micro culture colorimetric assay using […] in 96 -well plates with the seeding of the cells on day 0 applying appropriate cell densities to prevent confluence of the cells during the period of the experiment. On day 1, the cells were treated with six di fferent concentrations (1, 3, 7, 12, 20 and 30 μM); thereby, the final concentration of DMSO was always < 0.5%, generally regarded as non-toxic to the cells. On day 4, the supernatant medium was discarded; the cells were fixed with 10 % trichloroacetic acid. After another day at 4 °C, the cells were washed in a strip washer and dyed with the SRB solution (100 μL, 0.4% in 1% acetic acid) for about 20 min to be followed by washing of the plates (four times, 1% acetic acid) and air -drying […]
(§6) overnight. Furthermore, tris base solution (200 μL, 10 mM) was added to each well and absorbance was measured at λ = 570 nm employing a reader (96 wells, Tecan Spectra, Crailsheim, Germany). The EC50 values were averaged from three independent experiments performed each in triplicate calculated from semi logarithmic dose response curves applying a non-linear four-parameter Hills-slope equation (GraphPad Prism5; variables top and bottom were set to 100 and 0, respectively).

Data set [2] relates to A2780 (ovarian carcinoma). Briefly: SRB cytotoxicity assay, A2780. Format: cell-based, human. The conditions noted are these: Homo sapiens, A2780; SRB assay, 72 h of treatment; cut-off 30 μM.
Excerpt: as §1, §2, §3, §4, §5, §6

Data set [3] deals with HT29 (colorectal carcinoma). Briefly: SRB cytotoxicity assay, HT29. It is filed as cell-based, human. The note with it: Homo sapiens, HT-29, 72 h of treatment, cut-off 30 μM.
Excerpt: as §1, §2, §3, §4, §5, §6

Data set [4] has as its system MCF7 (breast adenocarcinoma). Briefly: SRB cytotoxicity assay, MCF7. It is filed as cell-based, human. The conditions noted are these: Homo sapiens, MCF7, 72 h of treatment, cut-off 30 μM.
Excerpt: as §1, §2, §3, §4, §5, §6

The next data set relates to A375 (melanoma). As to the kind of experiment: SRB cytotoxicity assay, A375. It is filed as cell-based, human. The note with it: 72 h of treatment, cut-off 30 μM.
Excerpt: as §1, §2, §3, §4, §5, §6

As for `CCN(CC)c1ccc2c(-c3ccccc3C(=O)N3CCCN(C(=O)[C@]45CCC(C)(C)C[C@H]4C4=CC[C@@H]6[C@@]7(C)CC[C@H](OC(C)=O)[C@@](C)(COC(C)=O)[C@@H]7CC[C@@]6(C)[C@]4(C)CC5)CC3)c3ccc(=[N+](CC)CC)cc-3oc2c1` [Compound 22], the concentration for a half-maximal effect (EC50) turned out to be 441 ± 120 nM in data set [1]; 18 ± 1 nM in data set [2]; 83 ± 20 nM in data set [3]; 86 ± 10 nM in data set [4]; 31 ± 7 nM with A375 (melanoma) (Homo sapiens, A-375, 72 h).

`CC(=O)OC[C@@]1(C)[C@@H]2CC[C@]3(C)[C@H](CC=C4[C@@H]5CC(C)(C)CC[C@]5(C(=O)N5CCCNCC5)CC[C@]43C)[C@@]2(C)CC[C@@H]1OC(C)=O` [Compound 14, (3β,4α)3,23-Bis(acetyloxy)-N-(homopiperazinyl)-olean-12-en-28-amide] displayed a melting point of 176 to 180 °C.

In the case of `CC(=O)OC[C@@]1(C)[C@@H]2CC[C@]3(C)[C@H](CC=C4[C@@H]5CC(C)(C)CC[C@]5(C(=O)NCc5ccccc5)CC[C@]43C)[C@@]2(C)CC[C@@H]1OC(C)=O` [Compound 11, (3β,4α) 3,23-Bis(acetyloxy)-N-(benzyl)-olean-12-en-28-amide], the melting point fell in the range of 210 to 214 °C. For the same molecule, the 50% effective concentration (EC50) in data set [1] was over 30000 nM. Further, in data set [2], the response was half-maximal at 1300 ± 300 nM (EC50). The 50% effective concentration (EC50) in data set [3] was 3800 ± 700 nM. Also, the EC50 in data set [4] came out at 3400 ± 400 nM. In the data set with A375 (melanoma) (Homo sapiens, A-375, 72 h), this molecule registered a half-maximal effective concentration (EC50) of 1100 ± 600 nM.

In the case of `CC(=O)OC[C@@]1(C)[C@@H]2CC[C@]3(C)[C@H](CC=C4[C@@H]5CC(C)(C)CC[C@]5(C(=O)N5CCNCC5)CC[C@]43C)[C@@]2(C)CC[C@@H]1OC(C)=O` [Compound 13, (3β,4α)3,23-Bis(acetyloxy)-N-(piperazinyl)-olean-12-en-28-amide], the melting point was in the range of 183 to 187 °C.

In the case of `CC(=O)OC[C@@]1(C)[C@@H]2CC[C@]3(C)[C@H](CC=C4[C@@H]5CC(C)(C)CC[C@]5(C(=O)Nc5ccccc5)CC[C@]43C)[C@@]2(C)CC[C@@H]1OC(C)=O` [Compound 12, (3β,4α) 3,23-Bis(acetyloxy)-N-(phenyl)-olean-12-en-28-amide], the melting point lay in the range of 210 to 214 °C. Besides, the EC50 in data set [1] was over 30000 nM. For the same molecule, in data set [2], the concentration giving a half-maximal response (EC50) amounted to 800 ± 200 nM. The molecule further displayed a concentration giving a half-maximal response (EC50) in data set [3] of 1900 ± 600 nM. Also, the half-maximal effective concentration (EC50) in data set [4] was 1900 ± 100 nM. Besides, a half-maximal response in the data set on A375 (melanoma) (EC50) required 600 ± 200 nM. Moreover, the EC50 in the data set on A375 (melanoma) (Homo sapiens, A-375, 72 h) was 660 nM.

`CCN(CC)c1ccc2c(-c3ccccc3C(=O)N3CCCN(C(=O)[C@]45CC[C@@H](C)[C@H](C)[C@H]4C4=CC[C@@H]6[C@@]7(C)C[C@@H](OC(C)=O)[C@H](OC(C)=O)[C@@](C)(COC(C)=O)[C@@H]7[C@H](O)C[C@@]6(C)[C@]4(C)CC5)CC3)c3ccc(=[N+](CC)CC)cc-3oc2c1` (as salt: chloride) [Compound 24, N-{6-Diethylamino-9-[2-({4[ (2α,3β,4α,6β)-2,3,23-tris(acetyloxy)-6-hydroxy-28-oxours-12-en-28-yl)-1,4-diazepan-1-yl}carbonyl]phenyl]-3H-xanthen-3-ylidene)-N-ethylethanaminium Chloride] had a melting point of 269 to 273 °C.

Take `CCN(CC)c1ccc2c(-c3ccccc3C(=O)N3CCCN(C(=O)[C@]45CCC(C)(C)C[C@H]4C4=CC[C@@H]6[C@@]7(C)CC[C@H](OC(C)=O)[C@@](C)(COC(C)=O)[C@@H]7CC[C@@]6(C)[C@]4(C)CC5)CC3)c3ccc(=[N+](CC)CC)cc-3oc2c1` (as salt: chloride) [Compound 22]: the melting point was 243 to 248 °C.

With `CC(=O)O[C@H]1CC[C@]2(C)[C@H]3CC=C4[C@@H]5CC(C)(C)CC[C@]5(C(=O)Nc5ccccc5)CC[C@@]4(C)[C@]3(C)CC[C@H]2[C@]1(C)C=O` [Compound 8, (3β,4α) 3-Acetyloxy-N-(phenyl)-23-oxo-olean-12-en-28-amide], the melting point was in the range of 150 to 152 °C. This molecule also showed an EC50 in data set [1] of over 30000 nM. Further, in data set [2], the EC50 turned out to be 19900 ± 1400 nM. The same molecule showed an EC50 in data set [3] of over 30000 nM. Moreover, in data set [4], the EC50 is over 30000 nM. The same molecule displayed a 50% effective concentration (EC50) in the data set with A375 (melanoma) (Homo sapiens, A-375, 72 h) of 7900 ± 3300 nM.

Molecule `CC(=O)O[C@H]1CC[C@]2(C)[C@H]3CC=C4[C@@H]5CC(C)(C)CC[C@]5(C(=O)N5CCNCC5)CC[C@@]4(C)[C@]3(C)CC[C@H]2[C@]1(C)C=O` [Compound 9, (3β,4α) 3-Acetyloxy-N-(piperazinyl)-23-oxo-olean-12-en-28-amide] showed a melting point of 150 to 154 °C.

For the molecule `COc1cccc2c1C(=O)c1c(O)c3c(c(O)c1C2=O)C[C@@](O)(C(=O)CO)C[C@@H]3O[C@H]1C[C@H](N)[C@H](O)[C@H](C)O1` [DX, Doxorubicin, reference compound], the concentration for a half-maximal effect (EC50) stood at 1700 ± 300 nM in data set [1], 20 ± 10 nM in data set [2], 900 ± 200 nM in data set [3] and 1100 ± 300 nM in data set [4].

For `CC(=O)OC[C@@]1(C)[C@@H]2[C@H](O)C[C@]3(C)[C@H](CC=C4[C@@H]5[C@@H](C)[C@H](C)CC[C@]5(C(=O)N5CCNCC5)CC[C@]43C)[C@@]2(C)C[C@@H](OC(C)=O)[C@@H]1OC(C)=O` [Compound 17, (2α,3β,4α,6β) 2,3,23-Tris(acetyloxy)-N-(piperazinyl)-6-hydroxyurs-12-en-28-amide], the melting point is 133 to 138 °C.

In turn, `CC(=O)O[C@H]1CC[C@]2(C)[C@H]3CC=C4[C@@H]5CC(C)(C)CC[C@]5(C(=O)N5CCCNCC5)CC[C@@]4(C)[C@]3(C)CC[C@H]2[C@]1(C)C=O` [Compound 10, (3β,4α) 3-Acetyloxy-N-(homopiperazinyl)-23-oxo-olean-12-en-28-amide] showed a melting point of 176 to 179 °C.

On to `CC(=O)OC[C@@]1(C)[C@@H]2[C@H](O)C[C@]3(C)[C@H](CC=C4[C@@H]5[C@@H](C)[C@H](C)CC[C@]5(C(=O)N5CCCNCC5)CC[C@]43C)[C@@]2(C)C[C@@H](OC(C)=O)[C@@H]1OC(C)=O` [Compound 18, (2α,3β,4α,6β) 2,3,23-Tris(acetyloxy)-N-(homopiperazinyl)-6-hydroxyurs-12-en-28-amide], for which the melting point lay within 146.5 to 150.5 °C.

On to `CC(=O)O[C@H]1CC[C@]2(C)[C@H]3CC=C4[C@@H]5CC(C)(C)CC[C@]5(C(=O)NCc5ccccc5)CC[C@@]4(C)[C@]3(C)CC[C@H]2[C@]1(C)C=O` [Compound 7, (3β,4α) 3-Acetyloxy-N-(benzyl)-23-oxo-olean-12-en-28-amide], for which the melting point lay in the range of 119 to 121 °C. In data set [1], this molecule gave a concentration giving a half-maximal response (EC50) of 18500 ± 4600 nM. The same molecule gave an EC50 in data set [2] of 4400 ± 300 nM. The molecule also displayed a half-maximal effective concentration (EC50) in data set [3] of 10700 ± 1800 nM. In data set [4], the midpoint of the response, the EC50, lay at 8800 ± 1600 nM. The same molecule gave a concentration for a half-maximal effect (EC50) with A375 (melanoma) (Homo sapiens, A-375, 72 h) of 3300 ± 300 nM.

The molecule `CCN(CC)c1ccc2c(-c3ccccc3C(=O)N3CCN(C(=O)[C@]45CC[C@@H](C)[C@H](C)[C@H]4C4=CC[C@@H]6[C@@]7(C)C[C@@H](OC(C)=O)[C@H](OC(C)=O)[C@@](C)(COC(C)=O)[C@@H]7[C@H](O)C[C@@]6(C)[C@]4(C)CC5)CC3)c3ccc(=[N+](CC)CC)cc-3oc2c1` (as salt: chloride) [Compound 23, N-{6-Diethylamino-9-[2-({4[ (2α,3β,4α,6β)-2,3,23-tris(acetyloxy)-6-hydroxy-28-oxours-12-en-28-yl)-1-piperazinyl]carbonyl]phenyl]-3H-xanthen-3-ylidene)-N-ethylethanaminium Chloride] showed a melting point of 228 to 233 °C.
